Results taken from the supplement of paper PMC10307832.

Experiments:
Experiment in all cases: relative viability (nuclei count vs DMSO), 5 days (fraction); higher = more cells survive
AZ23 = compound: CC(C)Oc1cc(Nc2nc(N[C@@H](C)c3ccc(F)cn3)ncc2Cl)n[nH]1 [AZ23]
Method in brief: (§1)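 For viability, nuclei in each treated well were divided by nuclei in vehicle wells and the median across plates was taken. Lung cancer cell lines in 1536-well plates were pinned with five library-drug doses (not always all listed) spaced by √10, cultured 5 days without medium change, and imaged at 4× after Hoechst staining, with plates passing only at control CV below 25% and at least one doubling.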

HG-5-88-01 = compound: CC(C)S(=O)(=O)C1=CC=CC=C1NC2=NC(=NC(=C2Cl)N)NC3=C(C=C(C=C3)N4CCC(CC4)C(=O)N)OC [HG-5-88-01]
Method in brief: as §1

Embelin = compound: CCCCCCCCCCCC1=C(O)C(=O)C=C(O)C1=O [Embelin]
Method in brief: as §1

[1] = compound: C[C@@H]1CN(CC(=O)Nc2ccc3c(c2)Cc2cccc(-c4cc(=O)cc(N5CCOCC5)o4)c2S3)C[C@H](C)O1
Method in brief: as §1

Vatalanib = compound: Clc1ccc(Nc2nnc(Cc3ccncc3)c3ccccc23)cc1 [Vatalanib]
Method in brief: as §1

Cell Line	relative viability (AZ23; 0.01 µM)	relative viability (AZ23; 0.03162 µM)	relative viability (AZ23; 0.3162 µM)	relative viability (HG-5-88-01; 0.04 µM)	relative viability (HG-5-88-01; 0.1265 µM)	relative viability (HG-5-88-01; 0.4 µM)	relative viability (HG-5-88-01; 1.265 µM)	relative viability (HG-5-88-01; 4 µM)	relative viability (Embelin; 0.08 µM)	relative viability (Embelin; 0.8 µM)	relative viability (Embelin; 2.53 µM)	relative viability (Embelin; 8 µM)	relative viability ([1]; 0.04 µM)	relative viability ([1]; 0.1265 µM)	relative viability ([1]; 0.4 µM)	relative viability ([1]; 4 µM)	relative viability (Vatalanib; 0.04 µM)	relative viability (Vatalanib; 0.1265 µM)	relative viability (Vatalanib; 0.4 µM)	relative viability (Vatalanib; 1.265 µM)	relative viability (Vatalanib; 4 µM)
LK-2	0.802	1.14	0.959	0.976	0.994	0.962	0.582	0.789	1.1	1.07	1.25	0.856	0.848	0.923	0.979	1.1	0.952	0.863	0.889	1.01	0.995
NCI-H441	1.43	1.01	1.06	1.09	1.33	1.24	0.925	0.819	1.05	1.19	1.45	1.02	1.2	0.787	1.04	0.948	1.16	0.922	1.08	1.08	0.933
SK-LU-1		1.14	1.08	0.982	1.04	0.998	0.876	0.708	1.13	1.19	1.26	0.928	1.04	1.04	1.1	0.853	1.09	0.993	1.14	1.04	1.05
NCI-H1651	0.947	1.05	1.05	0.994	0.993	0.986	0.976	1.07	0.992	1.03	1.03	0.946	0.954	0.954	1.03	0.981	1.01	0.935	0.955	0.92	0.958
NCI-H1792	0.788	1.07	1.1	1.01	1.08	1	0.834	1.03	0.924	1.07	1.11	1.06	0.895	0.8	0.9	0.797	0.912	0.707	0.861	0.827	0.782
HCC-78	0.837	1.01	0.589	0.836	0.736	0.476	0.378	0.417	1.02	1.02	0.977	1.07	0.883	0.922	0.821	0.923	0.95	0.862	0.972	0.82	0.835
NCI-H1395		1.01	0.849	0.9	0.97	0.921	0.953	0.876	0.941	1.15	0.857	0.617	0.854	0.816	0.761	0.999	0.939	0.871	0.863	0.813	0.885
NCI-H596	1.07	0.915	0.962	1.01	0.933	1.04	0.994	0.576	0.981	0.986	1.16	0.732	0.947	0.982	0.783	0.885	0.97	1.15	1.06	0.954	0.912
